# According to ChEMBL document CHEMBL1152066, “7,10-Bis(2-mercapto-2-methyl)propyl-7,10-diazapalmitic acid: a novel, N2S2 ligand for technetium-99m” (Bioorg Med Chem Lett, 1996):
# Where “and” joins values, the source holds several entries; their conditions need not be identical. Identical values can stand only once.
# Key:
# Type in all cases: ADME, organism-based
# Settings in all cases: in vivo
# Rattus norvegicus [1] = assay: (§1) Distribution of radioactivity in stomach of fasted rats following concomitant intravenous administration of [99mTc]7. value expressed as % injected dose / organ
# Rattus norvegicus [2] = assay: Distribution of radioactivity in heart of fasted rats following concomitant intravenous administration of [99mTc]-7. value expressed as % injected dose / organ
# Rattus norvegicus [3] = assay: Distribution of radioactivity in kidney of fasted rats following concomitant intravenous administration of [99mTc]7. value expressed as % injected dose / organ
# Rattus norvegicus [4] = assay: Distribution of radioactivity in lung of fasted rats following concomitant intravenous administration of [99mTc]7. value expressed as % injected dose / organ
# Rattus norvegicus [5] = assay: Distribution of radioactivity in spleen of fasted rats following concomitant intravenous administration of [99mTc]-7. value expressed as % injected dose / organ
# Rattus norvegicus [6] = assay: as §1; remark: listed apart in the source
smiles,measurement,setting,value
CCCCCCN(CCN(CCCCCC(=O)O)CC(C)(C)S)CC(C)(C)S,Injected dose/organ,Rattus norvegicus [1],0.27% and 0.18%
same,Injected dose/organ,Rattus norvegicus [2],0.22% and 0.56%
same,Injected dose/organ,Rattus norvegicus [3],3.42% and 1.18%
same,Injected dose/organ,Rattus norvegicus [4],1.19% and 0.73%
same,Injected dose/organ,Rattus norvegicus [5],0.7% and 0.78%
O=C(O)CCCCCCCCCCCCCCc1ccc([125I])cc1,Injected dose/organ,Rattus norvegicus [1],0.27%
same,Injected dose/organ,Rattus norvegicus [2],1.86% and 2.94%
same,Injected dose/organ,Rattus norvegicus [3],2.07% and 0.71%
same,Injected dose/organ,Rattus norvegicus [6],0.42%
same,Injected dose/organ,Rattus norvegicus [4],1.25% and 0.77%
same,Injected dose/organ,Rattus norvegicus [5],0.54% and 0.57%
